Measured values as given in patent publication US12162855B2, “Tetrahydroquinolino derivatives for the treatment of metastatic and chemoresistant cancers” (THE TRUSTEES OF PRINCETON UNIVERSITY, priority 2018, dated 2024).
Several values for one entry are separate records, joined by “and”; a condition that tells them apart may be missing. Identical values can stand only once. Marks after values point to notes of the source that are not given here.

Assays:
[1] = Toxicity experiments in C57Bl6 mice (IP); assay type: in vivo
Procedure: All mice were originally ordered from the Jackson Laboratory (Bar Harbor, ME) and breeding was conducted in a specific pathogen-free (SPF) barrier facility. Toxicity experiments were performed on 8-12-week old male and female C57B16 mice. MBE1 was dissolved at 50 mg/mL in DMSO followed by a […] into Kolliphor EL, followed by a 1:5 dilution into PBS to yield a 5 mg/ml MBE1 solution, (10% DMSO, 10% Kolliphor EL, 80% PBS). This was administered via IP injection at ascending doses from 12.5 to 200 mg/kg body mass in a set of 3 mice at 24 h intervals. Body condition score, food uptake, fecal/urine production, behavior and body weight were measured as toxicity readouts. Five mice were then treated every 3 days with 25 mg/kg MBE1 for 18 days.

[2] = target: T1, Aldh1a2 (Homo sapiens, UniProt O94788); experiment: ALDEFLUOR assay in 293T cells transiently transfected with human Aldh1a2; assay type: cell-based; details: concentrations below 10 μM
T1 construct: expressed in transfected cells; host or cells: 293T, transient transfection
T1 sequence (O94788 1-518): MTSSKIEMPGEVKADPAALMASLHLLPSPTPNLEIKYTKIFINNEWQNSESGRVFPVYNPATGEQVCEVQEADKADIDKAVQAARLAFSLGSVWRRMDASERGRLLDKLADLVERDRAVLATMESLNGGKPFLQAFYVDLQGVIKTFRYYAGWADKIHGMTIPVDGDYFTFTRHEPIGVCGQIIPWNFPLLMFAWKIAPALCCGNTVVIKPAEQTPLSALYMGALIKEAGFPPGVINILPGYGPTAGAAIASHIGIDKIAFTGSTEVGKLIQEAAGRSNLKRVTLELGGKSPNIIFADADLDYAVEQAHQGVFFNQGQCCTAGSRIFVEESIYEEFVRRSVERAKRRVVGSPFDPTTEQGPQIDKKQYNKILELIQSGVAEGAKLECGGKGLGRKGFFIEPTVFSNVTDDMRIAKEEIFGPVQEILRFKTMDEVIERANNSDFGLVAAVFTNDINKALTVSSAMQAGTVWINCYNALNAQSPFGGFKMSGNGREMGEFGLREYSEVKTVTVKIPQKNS
Procedure: The coding sequences of Aldh1a1, Aldh1a2, Aldh1a3 and Aldh3a1 were cloned from cDNA made from pooled human reference RNA samples. Cloned sequences flanked by Age1 and Xho1 restriction sites were inserted into the pLex lentiviral plasmid. Clones were sequenced and compared against NCBI expressed sequence tags (ESTs) for accuracy. Viral production of each enzyme was performed by transfection into the 293T packaging cell line using PEI along with PsPax2 and VSVG packaging vectors. Viruses were collected and filtered at 0.45 μm, then cells were transduced using polybrene (8 μg/mL) for 12 hours, followed by culture with 1 μg/mL puromycin for the duration of experiments. All viral transduction and selection was performed on a cell population-wide basis.
Cells were counted, centrifuged and resuspended at 1,000,000 cells/mL in ALDEFLUOR™ buffer (Stemcell Technologies). ALDEFLUOR™ substrate (Stemcell Technologies, 1:200) and test compound or 1 mM DEAB were added to cell suspension and incubated at 37° C. for 45 minutes with vortexing every 15 minutes. Cells were centrifuged and resuspended in ALDEFLUOR™ buffer with DAPI at 5 μg/mL. Samples were analyzed with the BD LSR2 flow cytometry platform. Gating was performed using DEAB as a negative control.

[3] = Plasma pharmacokinetics in mice by LC/MS/MS; assay type: in vivo, mouse; details: for half-life / AUC(0-inf) / Clearance: mice, dose 25 mg/kg; for AUC(0-inf): noncompartment model
Procedure: Pharmacokinetic experiments were performed on 16-week old C57BL6 male mice. Mice were administered MBE1.5 (15% DMSO, 5% Kolliphor EL, 80% PBS) via IP injection. Blood was collected by terminal cardiac puncture at 15 minutes, 30 minutes, 1 hour, 3 hours, and 24 hours post-injection. Serum was obtained by blood separation via centrifugation at 16200 RCF for 1 min. Tissues were then collected following exsanguination. Serum and tissues were rapidly frozen in liquid nitrogen and submitted for pharmacokinetic evaluation.
Plasma MBE1.5 concentration was measured with LC/MS/MS assay in mice PK studies.
Chemicals: MBE1.5 and MBE2.0 were supplied as stocks (1 mg/mL) in MeOH with 1% DMSO. MBE2.0 was used as internal standard. HPLC grade acetonitrile and water were purchased from J.T. Baker (Center Valley, PA). The mouse plasma was purchased from Innovative Research (Novi, MI) for the preparation of plasma calibration standards.
Preparation of standard solution: MBE1.5 stock was diluted in control mice plasma to obtain calibration range from 8.2 ng/mL to 18 μg/mL. 1 μg/mL MBE2.0 in methanol was used as a working internal standard (IS).
Sample preparation: The plasma standard and mouse plasma samples (204) were spiked with 54 μL IS and deproteinized with 1204 acetonitrile and methanol (v/v 5:1). After centrifugation at 13000 rpm for 15 minutes, 254 of the supernatant was analyzed by LC-MS.
Liquid Chromatographic/Mass spectrometry: Quantitation of MBE1.5 was performed using TSQ Quantum triple quadruple mass spectrometer equipped with an API electrospray ionization (ESI) source, a Surveyor MS pump, a Surveyor Autosampler, with Xcalibur data acquisition software (ThermoElectron, San Jose, CA, USA).
LC conditions were as follows: mobile phase A: aqueous solution (0.1% formic acid); mobile phase B: acetonitrile (0.1% formic acid); flow rate 500 μL/min; gradient elution, 0 to 1 minute, 60% A; 1 to 2.5 minutes, 60% to 20% A; 2.5 to 7.0 minutes, 0% A, 7.0 to 9.0 minutes 0% A, 9.0 to 11.0 minutes, 0% to 60% A; and column: Luna® C18, 150×4.6 mm, 5 μm (Phenomenex, Torrance, CA). The retention times for MBE1.5 and IS were 6.3 minutes and 6.6 minutes, respectively.
MS/MS conditions were as follows: in single reaction monitoring mode, m/z 313.2/178.2 (MBE1.5), m/z 281.2/119.1 (MBE2.0, IS); ion spray voltage, 4500 v; capillary temperature 350° C.; sheath gas pressure 20 arbitrary units; Aux gas pressure 50 arbitrary units; collision pressure 1.5 arbitrary units. The collision energy and tube lens were optimized for each compound.
Calculation: Plasma calibration standards were used for the quantitation of MBE in plasma samples. The log linear regression was used for calibration curve to determine the concentration in plasma samples.
Preliminary PK data was analyzed using noncompartment model by Winnolin 2.0.

[4] = male, C57BL6, mouse, plasma, ip, 25 mg/kg, i.p., calculation: time point to 3 hr
[5] = male, C57BL6, mouse, plasma, ip, 25 mg/kg, i.p., calculation: time point to 24 hr

SMILES	chronic toxicity (body condition score, food uptake, fecal/urine production, behavior, body weight) ([1]; 25 mg/kg every 3 days for 18 days)	acute toxicity (body condition score, food uptake, fecal/urine production, behavior, body weight) ([1]; ascending doses 12.5 to 200 mg/kg at 24 h intervals)	inhibition of Aldh1a2 activity (FIG. 2B) [2]	Concentration in mouse plasma, individual mice ([3]; Time 0 hr, mice #1-#3, LOD 8.2 ng/mL)	Concentration in mouse plasma, individual mice ([3]; Time 0.5 hr, i.p., mice #1-#3)	Concentration in mouse plasma, individual mice ([3]; Time 1 hr, i.p., mice #1-#3)	Concentration in mouse plasma, individual mice ([3]; Time 3 hr, i.p., mice #1-#3)	Concentration in mouse plasma, individual mice ([3]; Time 24 hr, i.p., mice #1-#3, LOD 8.2 ng/mL)	Concentration in mouse plasma, individual mice, forced to calculate ([3]; Time 24 hr, i.p., mice #1-#3, integrated peak area less than LOD)	Concentration in mouse plasma, Mean ([3]; Time 24 hr, i.p., LOD 8.2 ng/mL)	concentration at 0.5 h ([3]; male, C57BL6, mouse, plasma, ip, 25 mg/kg, Time 0.5 hr) [ng/mL]	concentration at 1 h ([3]; male, C57BL6, mouse, plasma, ip, 25 mg/kg, Time 1 hr) [ng/mL]	concentration at 3 h ([3]; male, C57BL6, mouse, plasma, ip, 25 mg/kg, Time 3 hr) [ng/mL]	concentration at 24 h ([3]; male, C57BL6, mouse, plasma, ip, 25 mg/kg, Time 24 hr, i.p., integrated peak area less than LOD, read-out: Concentration in mouse plasma, Mean, forced to calculate) [ng/mL]	half-life [3, 4] [h]	AUC(0-inf) [3, 4] [ng·h/mL]	half-life [3, 5] [h]	AUC(0-inf) [3, 5] [ng·h/mL]	Clearance ([3]; i.p., calculation: time point to 3 hr) [mL/h]	Clearance ([3]; i.p., calculation: time point to 24 hr) [mL/h]
CCc1cnccc1C(=O)Nc1cc2c(cc1F)NC(=O)CC2 [MBE1, 3-ethyl-N-(7-fluoro-2-oxo-1,2,3,4-tetrahydroquinolin-6-yl)isonicotinamide]	Neither experiment showed any indication of either acute or chronic toxicity	Neither experiment showed any indication of either acute or chronic toxicity	–	–	–	–	–	–	–	–	–	–	–	–	–	–	–	–	–	–
CCc1ccccc1C(=O)Nc1cc2c(cc1F)NC(=O)CC2 [MBE1.5, 2-ethyl-N-(7-fluoro-2-oxo-1,2,3,4-tetrahydroquinolin-6-yl)benzamide]	–	–	does not inhibit	<LOD	6932 ng/mL and 3411 ng/mL and 4650 ng/mL	2842 ng/mL and 6295 ng/mL and 2815 ng/mL	1704 ng/mL and 3447 ng/mL and 849 ng/mL	<LOD	0.002* μg/ml and 0.006* μg/ml and 0.005* μg/ml	<LOD	5000	3980	2000	4	1.9	15700	2.32	16900	39.87	36.96
